Each block holds one molecule with its values, some of them ahead of it.
Target: JNK3 (Homo sapiens, UniProt P53779)
Experiment: Measurement of JNK3 enzyme activity
Assay type: biochemical
Text: Experimental Example 1. Measurement of JNK3 Enzyme Activity

JNK3, sequence (P53779 whole entry, species assumed): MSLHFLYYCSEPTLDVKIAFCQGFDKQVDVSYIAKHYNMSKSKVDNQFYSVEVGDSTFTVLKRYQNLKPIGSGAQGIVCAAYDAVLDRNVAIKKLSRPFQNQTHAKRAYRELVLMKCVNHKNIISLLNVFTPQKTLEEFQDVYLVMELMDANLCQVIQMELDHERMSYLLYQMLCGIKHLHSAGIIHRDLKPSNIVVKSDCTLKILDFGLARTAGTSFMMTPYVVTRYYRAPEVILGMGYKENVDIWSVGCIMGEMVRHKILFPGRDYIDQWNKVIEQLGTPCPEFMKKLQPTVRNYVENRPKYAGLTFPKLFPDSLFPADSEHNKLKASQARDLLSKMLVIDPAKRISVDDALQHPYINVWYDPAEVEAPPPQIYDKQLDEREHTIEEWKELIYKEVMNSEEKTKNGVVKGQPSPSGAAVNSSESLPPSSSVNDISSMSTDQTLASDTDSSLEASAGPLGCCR

SMILES: NC(=O)C1Cc2nc(-c3ccc(F)c(C(F)(F)F)c3)n(-c3ccnc(N[C@@H]4CCN(C(=O)C5CC5)C4)n3)c2C1 (stereo partly drawn) [Compound 21a, 1-(2-(((R)-1-(cyclopropanecarbonyl)pyrrolidine-3-yl)amino)pyrimidin-4-yl)-2-(4-fluoro-3-(trifluoromethyl)phenyl)-1,4,5,6-tetracyclopenta[d]imidazol-5-carboxamide]
IC50 (Table 1): > 1000 nM

SMILES: NC(=O)C1Cc2nc(-c3ccc(Cl)c(Cl)c3)n(-c3ccnc(N[C@@H]4CCN(C(=O)C5CC5)C4)n3)c2C1 (stereo partly drawn) [Compound 21b, 1-(2-(((R)-1-(cyclopropanecarbonyl)pyrrolidine-3-yl)amino)pyrimidin-4-yl)-2-(3,4-dichlorophenyl)-1,4,5,6-tetracyclopenta[d]imidazol-5-carboxamide]
IC50 (Table 2): < 30 nM

SMILES: NC(=O)C1Cc2nc(-c3ccc4ccccc4c3)n(-c3ccnc(N[C@@H]4CCN(C(=O)C5CC5)C4)n3)c2C1 (stereo partly drawn) [Compound 21c, 1-(2-(((R)-1-(cyclopropanecarbonyl)pyrrolidine-3-yl)amino)pyrimidin-4-yl)-2-(naphthalen-2-yl)-1,4,5,6-tetracyclopenta[d]imidazol-5-carboxamide]
IC50 (Table 3): < 30 nM

SMILES: NC(=O)C1Cc2nc(-c3ccc4ccccc4c3)n(-c3ccnc(N[C@H]4CCCN(C(=O)C5CC5)C4)n3)c2C1 (stereo partly drawn) [Compound 22c, 1-(2-(((S)-1-(cyclopropanecarbonyl)piperidin-3-yl)amino)pyrimidin-4-yl)-2-(naphthalen-2-yl)-1,4,5,6-tetracyclopenta[d]imidazol-5-carboxamide]
IC50 (Table 3): < 30 nM

SMILES: NC(=O)C1Cc2nc(-c3ccc(Cl)c(Cl)c3)n(-c3ccnc(N[C@@H]4CCCN(C(=O)C5CC5)C4)n3)c2C1 (stereo partly drawn) [Compound 23b, 1-(2-(((R)-1-(cyclopropanecarbonyl)piperidin-3-yl)amino)pyrimidin-4-yl)-2-(3,4-dichlorophenyl)-1,4,5,6-tetracyclopenta[d]imidazol-5-carboxamide]
IC50 (Table 2): < 30 nM

SMILES: CNC(=O)C1Cc2nc(-c3ccc(F)c(C(F)(F)F)c3)n(-c3ccnc(N[C@H]4CCN(C(=O)C5CC5)C4)n3)c2C1 (stereo partly drawn) [Compound 24a, 1-(2-(((S)-1-(cyclopropanecarbonyl)pyrrolidine-3-yl)amino)pyrimidin-4-yl)-2-(4-fluoro-3-(trifluoromethyl)phenyl)-N-methyl-1,4,5,6-tetracyclopenta[d]imidazol-5-carboxamide]
IC50 (Table 1): > 1000 nM

SMILES: CNC(=O)C1Cc2nc(-c3ccc(F)c(C(F)(F)F)c3)n(-c3ccnc(N[C@@H]4CCN(C(=O)C5CC5)C4)n3)c2C1 (stereo partly drawn) [Compound 25a, 1-(2-(((R)-1-(cyclopropanecarbonyl)pyrrolidine-3-yl)amino)pyrimidin-4-yl)-2-(4-fluoro-3-(trifluoromethyl)phenyl)-N-methyl-1,4,5,6-tetracyclopenta[d]imidazol-5-carboxamide]
IC50 (Table 1): > 1000 nM

SMILES: CNC(=O)C1Cc2nc(-c3ccc4c(c3)OCO4)n(-c3ccnc(N[C@@H]4CCN(C(=O)C5CC5)C4)n3)c2C1 (stereo partly shown) [Compound 25d]
IC50 (Table 4): < 30 nM

SMILES: CNC(=O)C1Cc2nc(-c3ccc4ccccc4c3)n(-c3ccnc(N[C@H]4CCCN(C(=O)C5CC5)C4)n3)c2C1 (stereo partly drawn) [Compound 26c, 1-(2-(((S)-1-(cyclopropanecarbonyl)piperidin-3-yl)amino)pyrimidin-4-yl)-2-(naphthalen-2-yl)-N-methyl-1,4,5,6-tetracyclopenta[d]imidazol-5-carboxamide]
IC50 (Table 3): < 30 nM

SMILES: CNC(=O)C1Cc2nc(-c3ccc(F)c(-c4ccc5ccccc5c4)c3)n(-c3ccnc(N[C@@H]4CCCN(C(=O)C5CC5)C4)n3)c2C1 (stereo partly shown) [Compound 27c]
IC50 (Table 3): < 30 nM

Now from value to molecule:

IC50 (Table 5): < 30 nM
SMILES: NC(=O)C1Cc2nc(-c3ccc4c(c3)CCO4)n(-c3ccnc(N[C@H]4CCN(C(=O)C5CC5)C4)n3)c2C1 (stereo partly drawn) [Compound 20e, 1-(2-(((S)-1-(cyclopropanecarbonyl)pyrrolidine-3-yl)amino)pyrimidin-4-yl)-2-(2,3-dihydrobenzofuran-5-yl)-1,4,5,6-tetracyclopenta[d]imidazol-5-carboxamide]

IC50 (Table 4): > 1000 nM
SMILES: NC(=O)C1Cc2nc(-c3ccc4c(c3)OCO4)n(-c3ccnc(N[C@@H]4CCN(C(=O)C5CC5)C4)n3)c2C1 (stereo partly drawn) [Compound 21d, 2-(benzo[d][1,3]dioxol-5-yl)-1-(2-(((R)-1-(cyclopropanecarbonyl)pyrrolidine-3-yl)amino)pyrimidin-4-yl)-1,4,5,6-tetracyclopenta[d]imidazol-5-carboxamide]

IC50 (Table 5): < 30 nM
SMILES: NC(=O)C1Cc2nc(-c3ccc4c(c3)CCO4)n(-c3ccnc(N[C@@H]4CCN(C(=O)C5CC5)C4)n3)c2C1 (stereo partly drawn) [Compound 21e, 1-(2-(((R)-1-(cyclopropanecarbonyl)pyrrolidine-3-yl)amino)pyrimidin-4-yl)-2-(2,3-dihydrobenzofuran-5-yl)-1,4,5,6-tetracyclopenta[d]imidazol-5-carboxamide]

IC50 (Table 4): < 30 nM
SMILES: NC(=O)C1Cc2nc(-c3ccc4c(c3)OCO4)n(-c3ccnc(N[C@H]4CCCN(C(=O)C5CC5)C4)n3)c2C1 (stereo partly drawn) [Compound 22d, 2-(benzo[d][1,3]dioxol-5-yl)-1-(2-(((S)-1-(cyclopropanecarbonyl)piperidin-3-yl)amino)pyrimidin-4-yl)-1,4,5,6-tetracyclopenta[d]imidazol-5-carboxamide]

IC50 (Table 5): < 30 nM
SMILES: NC(=O)C1Cc2nc(-c3ccc4c(c3)CCO4)n(-c3ccnc(N[C@H]4CCCN(C(=O)C5CC5)C4)n3)c2C1 (stereo partly drawn) [Compound 22e, 1-(2-(((S)-1-(cyclopropanecarbonyl)piperidin-3-yl)amino)pyrimidin-4-yl)-2-(2,3-dihydrobenzofuran-5-yl)-1,4,5,6-tetracyclopenta[d]imidazol-5-carboxamide]

IC50 (Table 3): < 30 nM
SMILES: NC(=O)C1Cc2nc(-c3ccc4ccccc4c3)n(-c3ccnc(N[C@@H]4CCCN(C(=O)C5CC5)C4)n3)c2C1 (stereo partly drawn) [Compound 23c, 1-(2-(((R)-1-(cyclopropanecarbonyl)piperidin-3-yl)amino)pyrimidin-4-yl)-2-(naphthalen-2-yl)-1,4,5,6-tetracyclopenta[d]imidazol-5-carboxamide]

IC50 (Table 4): < 30 nM
SMILES: NC(=O)C1Cc2nc(-c3ccc4c(c3)OCO4)n(-c3ccnc(N[C@@H]4CCCN(C(=O)C5CC5)C4)n3)c2C1 (stereo partly shown) [Compound 23d]

IC50 (Table 5): < 30 nM
SMILES: NC(=O)C1Cc2nc(-c3ccc4c(c3)CCO4)n(-c3ccnc(N[C@@H]4CCCN(C(=O)C5CC5)C4)n3)c2C1 (stereo partly drawn) [Compound 23e, 1-(2-(((R)-1-(cyclopropanecarbonyl)piperidin-3-yl)amino)pyrimidin-4-yl)-2-(2,3-dihydrobenzofuran-5-yl)-1,4,5,6-tetracyclopenta[d]imidazol-5-carboxamide]

IC50 (Table 5): > 1000 nM
SMILES: CNC(=O)C1Cc2nc(-c3ccc4c(c3)CCO4)n(-c3ccnc(N[C@H]4CCCN(C(=O)C5CC5)C4)n3)c2C1 (stereo partly drawn) [Compound 26e, 1-(2-(((S)-1-(cyclopropanecarbonyl)piperidin-3-yl)amino)pyrimidin-4-yl)-2-(2,3-dihydrobenzofuran-5-yl)-N-methyl-1,4,5,6-tetracyclopenta[d]imidazol-5-carboxamide]
